Measurements taken from patent US5747493A, “Dopamine re-uptake inhibitor” (Pola Chemical Industries, Inc., priority 1993, dated 1998).
Structures can show the parent of a compound that is named as a salt.

Target: T1, [^3 H] GBR12935 binding in rat strialal crude membrane (Rattus norvegicus, UniProt P23977)
T1 construct: from tissue; host or cells: corpus striatum of Wistar male rat, crude membrane
Assay: [^3 H] GBR12935 binding in rat striatal crude membrane
Design: species or system rat (Wistar male)
Conditions: 1 nM [^3 H] GBR12935, rat striatal crude membrane; for IC50: 4° C., 80 minutes
Protocol: After a cold 50 mM Tris-citrate buffer (pH 7.4, including 120 mM NaCl and 4 mM MgCl2) was added to a corpus striatum taken out of a Wistar male rat aged 12-13 weeks (while keeping on ice) to homogenize the resultant mixture, the homogenate was subjected twice to centrifugation under chilling for 20 minutes at 48,000 g. The final sedimentation residue thus obtained was suspended again in the same buffer as that used above to conserve the suspension at -80° C.
After thawing this frozen suspension, the thawed suspension was diluted to one thousandth of the amount of the tissue with the same buffer as that used above. To 0.8 ml of this crude membrane sample, were added [^3 H] GBR12935 (final concentration: 1 nM) and individual test substances and amantadine which is in clinical use at present (developing the concentration within a range of from 10^-3 to 10^-9 M) to 1 ml in total. Each of the resulting sample mixtures was incubated at 4° C. for 80 minutes in a plastic tube. After the incubation, the mixture was filtered by means of suction on a glass filter (Whatman GP/B) soaked in a 0.1% BSA, and the filter was washed three times with 3 ml of cold 0.9% NaCl. The thus-obtained filter was placed in a vial, and 10 ml of Aquazol-2 were added to conserve the filter overnight. Thereafter, the radioactivity of the sample was measured by a liquid scintillation counter. An IC50 value and a Hill coefficient were determined from the obtained uptake inhibition curve as to each of the test samples.

T1 sequence (P23977 whole entry): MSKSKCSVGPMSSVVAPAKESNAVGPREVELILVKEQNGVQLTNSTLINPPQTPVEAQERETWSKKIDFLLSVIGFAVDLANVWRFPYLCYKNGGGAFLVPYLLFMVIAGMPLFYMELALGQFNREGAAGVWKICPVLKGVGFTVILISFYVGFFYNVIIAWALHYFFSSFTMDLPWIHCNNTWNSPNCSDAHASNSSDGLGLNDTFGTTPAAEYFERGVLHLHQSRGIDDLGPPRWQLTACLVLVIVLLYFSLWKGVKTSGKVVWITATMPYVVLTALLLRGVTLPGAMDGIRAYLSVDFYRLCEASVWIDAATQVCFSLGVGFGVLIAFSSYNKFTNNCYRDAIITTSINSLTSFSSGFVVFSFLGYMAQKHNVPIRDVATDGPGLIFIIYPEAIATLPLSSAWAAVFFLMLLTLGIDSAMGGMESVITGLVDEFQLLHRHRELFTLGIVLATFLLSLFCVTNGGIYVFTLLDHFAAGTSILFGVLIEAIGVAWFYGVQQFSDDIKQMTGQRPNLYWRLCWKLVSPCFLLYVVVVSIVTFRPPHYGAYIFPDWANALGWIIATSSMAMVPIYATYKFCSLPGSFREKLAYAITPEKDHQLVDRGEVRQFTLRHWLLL

## OC(CNc1ccccc1)CN1CCN(CCCCC(c2ccc(F)cc2)c2ccc(F)cc2)CC1 (centres unmarked) [Compound 21, 1-[5,5-Bis(4-fluorophenyl)-pentyl]-4-(2-hydroxy-3-phenylaminopropyl)piperazinedihydrochloride]
  Hill coefficient (nH): 0.89 ± 0.07
  IC50: 0.006 ± 0.00032 µM

## Nc1ccc(NCC(O)CN2CCN(CCCC(c3ccc(F)cc3)c3ccc(F)cc3)CC2)cc1 (centres unmarked) [Compound 23, 1-[3-(4-Aminophenylamino)-2-hydroxypropyl]-4-(4,4-bis(4-fluorophenyl)butyl]piperazinetrimaleate]
  Hill coefficient (nH): 0.64 ± 0.09
  IC50: 0.037 ± 0.009 µM

## OC(CNc1ccccc1)CN1CCN(CC(c2ccccc2)c2ccccc2)CC1 (centres unmarked) [Compound 19, 1-(2,2-Diphenylethyl)-4-(2-hydroxy-3-phenylamino-propyl)piperazinedihydrochloride]
  Hill coefficient (nH): 0.76 ± 0.02
  IC50: 0.028 ± 0.002 µM

## Cc1ccc(NCC(O)CN2CCN(CCCC(c3ccc(F)cc3)c3ccc(F)cc3)CC2)cc1.Cl.Cl (centres unmarked) [Compound 14, 1-[4,4-Bis(4-fluorophenyl)-butyl]-4-[2-hydroxy-3-(4-methylphenylamino)propyl]-piperazine dihydrochloride]
  Hill coefficient (nH): 0.65 ± 0.03
  IC50: 0.004 ± 0.00041 µM

## OC(CNc1ccccc1)CN1CCN(CCCC(c2ccc(F)cc2)c2ccc(F)cc2)CC1 (single isomer, unassigned; (+)) [Compound 16, (+)-1-[4,4-Bis(4-fluoro-phenyl)butyl]-4-(2-hydroxy-3-phenylaminopropyl)piperazinedihydrochloride]
  Hill coefficient (nH): 0.57 ± 0.04
  IC50: 0.002 ± 0.00053 µM

## COc1cc(NCC(O)CN2CCN(CCCC(c3ccc(F)cc3)c3ccc(F)cc3)CC2)cc(OC)c1OC.O=C(O)/C=C\C(=O)O.O=C(O)/C=C\C(=O)O (centres unmarked) [Compound 11, 1-[4,4-Bis(4-fluorophenyl)-butyl]-4-[2-hydroxy-3-(3,4,5-trimethoxyphenylamino)propyl]-piperazine dimaleate]
  Hill coefficient (nH): 0.79 ± 0.04
  IC50: 0.043 ± 0.00532 µM

## OC(CNc1ccccc1)CN1CCN(CCCC(c2ccc(F)cc2)c2ccc(F)cc2)CC1 (single isomer, unassigned; (-)) [Compound 15, (-)-1-[4,4-Bis(4-fluoro-phenyl)butyl]-4-(2-hydroxy-3-phenylaminopropyl)piperazinedihydrochloride]
  Hill coefficient (nH): 0.72 ± 0.05
  IC50: 0.002 ± 0.0001 µM

## CC(C)(C)c1cc(NCC(O)CN2CCN(CCCC(c3ccc(F)cc3)c3ccc(F)cc3)CC2)cc(C(C)(C)C)c1O (centres unmarked) [Compound 22, 1-[4,4-Bis(4-fluorophenyl)-butyl]-4-[3-(3,5-di-tert-butyl-4-hydroxyphenylamino)-2-hydroxypropyl]piperazinetrimaleate]
  Hill coefficient (nH): 0.78 ± 0.07
  IC50: 0.087 ± 0.007 µM

## OC(CNc1ccccc1)CN1CCN(C(c2ccc(F)cc2)c2ccc(F)cc2)CC1 (centres unmarked) [Compound 2, 1-[Bis(4-fluorophenyl)methyl]-4-(2-hydroxy-3-phenylamino-propyl)piperazine dihydro-chloride]
  Hill coefficient (nH): 0.66 ± 0.05
  IC50: 0.02 ± 0.003 µM

## CN(C)c1ccc(NCC(O)CN2CCN(CCCC(c3ccc(F)cc3)c3ccc(F)cc3)CC2)cc1 (centres unmarked) [Compound 24, 1-[4,4-Bis(4-fluorophenyl)-butyl]-4-[3-(4-dimethyl-aminophenylamino)-2-hydroxy-propyl]piperazine dimaleate]
  Hill coefficient (nH): 0.94 ± 0.10
  IC50: 0.109 ± 0.019 µM

## OC(CNc1ccc(Cl)c(Cl)c1)CN1CCN(CCCC(c2ccc(F)cc2)c2ccc(F)cc2)CC1 (centres unmarked) [Compound 12, 1-[4,4-Bis(4-fluorophenyl)-buyl]-4-[3-(3,4-dichloro-phenylamino)-2-hydroxy-propyl]piperazinedihydrochloride]
  Hill coefficient (nH): 0.74 ± 0.03
  IC50: 0.012 ± 0.00072 µM

## Cl.Cl.OC(CNc1ccc(F)cc1)CN1CCN(CCCC(c2ccc(F)cc2)c2ccc(F)cc2)CC1 (centres unmarked) [Compound 9, 1-[4,4-Bis(4-fluorophenyl)-butyl]-4-[3-(4-fluorophenyl-amino)-2-hydroxypropyl]-piperazine dihydrochloride]
  Hill coefficient (nH): 0.74 ± 0.01
  IC50: 0.004 ± 0.00023 µM

## Cl.Cl.OC(CNc1ccc(Cl)cc1)CN1CCN(CCCC(c2ccc(F)cc2)c2ccc(F)cc2)CC1 (centres unmarked) [Compound 10, 1-[4,4-Bis(4-fluorophenyl)-butyl]-4-[3-(4-chlorophenyl-amino)-2-hydroxypropyl]-piperazine dihydrochloride]
  Hill coefficient (nH): 0.82 ± 0.03
  IC50: 0.003 ± 0.00032 µM

## O=C(O)/C=C\C(=O)O.O=C(O)/C=C\C(=O)O.Oc1ccc(NCC(O)CN2CCN(CCCC(c3ccc(F)cc3)c3ccc(F)cc3)CC2)cc1 (centres unmarked) [Compound 25, 1-[4,4-Bis(4-fluorophenyl)-butyl]-4-[2-hydroxy-3-(4-hydroxyphenylamino)propyl]-piperazine dimaleate]
  Hill coefficient (nH): 0.63 ± 0.09
  IC50: 0.01 ± 0.003 µM

## OC(CNc1ccccc1)CN1CCN(CCC(c2ccc(F)cc2)c2ccc(F)cc2)CC1 (centres unmarked) [Compound 18, 1-[3,3-Bis(4-fluorophenyl)-propyl]-4-(2-hydroxy-3-phenylaminopropyl)piperazinedihydrochloride]
  Hill coefficient (nH): 0.67 ± 0.04
  IC50: 0.007 ± 0.00065 µM

## O=C(O)/C=C\C(=O)O.O=C(O)/C=C\C(=O)O.O=C(O)/C=C\C(=O)O.OC(CNc1ccncc1)CN1CCN(CCCC(c2ccc(F)cc2)c2ccc(F)cc2)CC1 (centres unmarked) [Compound 17, 1-[4,4-Bis(4-fluorophenyl)-butyl]-4-[2-hydroxy-3-(4-pyridylamino)propyl]-piperazine trimaleate]
  Hill coefficient (nH): 0.74 ± 0.04
  IC50: 0.034 ± 0.002 µM

## COc1ccc(NCC(O)CN2CCN(CCCC(c3ccc(F)cc3)c3ccc(F)cc3)CC2)cc1.Cl.Cl (centres unmarked) [Compound 13, 1-[4,4-Bis(4-fluorophenyl)-butyl]-4-(2-hydroxy-3-(4-methoxyphenylamino)propyl]-piperazine dihydrochloride]
  Hill coefficient (nH): 0.52 ± 0.02
  IC50: 0.003 ± 0.00016 µM

## NC12CC3CC(CC(C3)C1)C2 [Amantadine, amantadine, reference compound]
  Hill coefficient (nH): 1.36 ± 0.08
Amantadine line in μM
  IC50: 819 ± 30.9 µM

## Cl.Cl.O=[N+]([O-])c1ccc(NCC(O)CN2CCN(CCCC(c3ccc(F)cc3)c3ccc(F)cc3)CC2)cc1 (centres unmarked) [Compound 20, 1-[4,4-Bis(4-fluorophenyl)-butyl]-4-[2-hydroxy-3-(4-nitrophenylamino)propyl]-piperazine dihydrochloride]
  Hill coefficient (nH): 0.69 ± 0.04
  IC50: 0.008 ± 0.0005 µM
